Assays:
[1] = tested on: human carcinoma solid tumors; assay: Nude mice with human carcinoma solid tumors: cytotoxic drugs, then activated human macrophages, then the same drugs; type: in vivo; conditions: after macrophage injection; drugs used alone or in combination
Source text: 2) Nude mice inoculated with human carcinoma solid tumors are initially treated with cytotoxic drugs (Adriamycin, Etretinate, Taxotere), used alone or in combination.

[2] = tested on: 16R-OV1/DDP human ovary cancer cell line; assay: Survival of cisplatin-resistant ovary cancer cells grown with MAK for 24 hours, then with cisplatin (FIG. 3); type: cell-based; conditions: cisplatin alone at maximal dose 10^-3 M
Description: The percentage of tumor cell survival is measured according to the method described in “Feasibility of drug screening with panels of human tumor cell lines using a microculture tetrazolium assay” (Alley M. C., Scudiero D. A., Monks A., et al.; Cancer Res., 1988, 48: 489-501), and is plotted against the dose of cisplatin (abscissa) in the test tube (molar concentration).
FIG. 3 represents the percentage of cellular survival as a function of cisplatin concentration (M).
The curve with hollow circles corresponds to the use of cisplatin alone.
The plain curve corresponds to the use of MAK alone.
The curve with black squares corresponds to the use of the combination of MAK followed by cisplatin.
The curve with hollow triangles corresponds to the theoretical additive curve of a treatment with MAK alone and a treatment with cisplatin alone.
16R-OV1/DDP human ovary cancer cell line was rendered resistant to cisplatinum by continuous exposure to increasing concentrations of cisplatin (Fajac A., et al. Cisplatin induced apoptosis and p.53 gene status in a cisplatin resistant human ovarian carcinoma cell line. Int. J. Cancer 68, 67-74, 1996). The cells are grown at 37° C., 5% CO2 in RPMI 1640 medium in the presence of activated human macrophages (MAK) during 24 hours and then with cisplatin at increasing concentrations. […]

solid carcinoma = assay: Mice bearing solid carcinoma: apoptosis-inducing drug plus monocyte derived cells; type: in vivo, C57B16 mice; conditions: drug intraperitoneally, 24 h later 0.1 million monocyte derived cells in tumor periphery; seen only after combined treatment
Description: 7) C57B16 mice bearing solid carcinoma are injected intraperitonealy with a drug inducing apoptosis (1 mg mitomycin C or 0.1 mg sodium butyrate). After 24 h, mice are injected with 0.1 million monocyte derived cells in tumor periphery. […] In another protocol, carcinoma cells are treated in vitro with 0.01 mM sodium butyrate, and then submitted to phagocytosis by murine monocyte derived cells.

Structure (SMILES) | effect of second treatment with the same cytotoxic drugs (subcutaneous tumor size) [1] | tumor outcome after combined treatment (solid carcinoma) | also measured
COc1cccc2c1C(=O)c1c(O)c3c(c(O)c1C2=O)C[C@@](O)(C(=O)CO)C[C@@H]3O[C@H]1C[C@H](N)[C@H](O)[C@H](C)O1 [Adriamycin] | further antitumoral effect |  | 
N.N.[Cl][Pt][Cl] [Cisplatin, cisplatin] |  |  | inhibition of survival [2]: 35%
CCOC(=O)/C=C(C)/C=C/C=C(C)/C=C/c1c(C)cc(OC)c(C)c1C [Etretinate] | further antitumoral effect |  | 
CC(=O)O[C@@]12CO[C@@H]1C[C@H](O)[C@@]1(C)C(=O)[C@H](O)C3=C(C)[C@@H](OC(=O)[C@H](O)[C@@H](NC(=O)OC(C)(C)C)c4ccccc4)C[C@@](O)([C@@H](OC(=O)c4ccccc4)[C@H]21)C3(C)C [Taxotere] | further antitumoral effect |  | 
CO[C@@]12[C@H](COC(N)=O)C3=C(C(=O)C(C)=C(N)C3=O)N1C[C@@H]1N[C@@H]12 [mitomycin C] |  | Tumor regression and protection against further tumor challenge | 
CCCC(=O)[O-].[Na+] [sodium butyrate] |  | Tumor regression and protection against further tumor challenge | 

Reference: patent US6713056B1, “Combined preparation for the treatment of neoplasic diseases or of infectious diseases” (I.D.M. Immuno-Designed Molecules, priority 1998, dated 2004)
